According to patent US20240124396A1, “AMINO LIPID COMPOUND, PREPARATION METHOD THEREFOR, AND USE THEREOF” (SHENZHEN SHENXIN BIOTECHNOLOGY CO., LTD., priority 2021, published 2024):

test system: Ovalbumin mRNA (OVA mRNA); test: Ovalbumin mRNA in vivo delivery and immunization performance of lipid nanoparticles (ELISA IgG titer); set-up: species or system BALB/c mice; details: LNP with OVA mRNA, 0.5 mg/kg subcutaneous injection Day 0 and Day 7, blood on the 21st day, FIG. 1 and FIG. 2
Description: Evaluation of Ovalbumin mRNA In Vivo Delivery and Immunization Performance of Lipid Nanoparticles (Delivery Vector) Prepared from Amino Lipid Compounds • Preparation process: The amino lipid compound described in the present invention, DSPC, cholesterol, and PEG2000-DMG were mixed and dissolved in absolute ethanol in a molar ratio of 50:10:38.5:1.5. Ovalbumin mRNA (OVA mRNA) was dissolved in a sodium acetate solution (50 mM, pH=4.0). Two microinjection pumps were used, and the ratio of ethanol solution to sodium acetate solution (50 mM, pH=4.0) was controlled to be 1:3. A crude solution of lipid nanoparticles was prepared in a microflow channel chip, then dialyzed for 6 hours with 1×PBS at a controlled temperature of 4° C. by using a dialysis cassette (Fisher, MWCO 20,000), and filtered with a 0.22 μm microporous filter membrane before use. The mass ratio of the amino lipid compound to ovalbumin mRNA (OVA mRNA) was about 10:1. • Animal preparation: 6-week-old male BALB/c mice with body weights of about 20 g were selected, and fed in an SPF-grade feeding room. Animal experiments were strictly carried out according to the guidelines of the national health institution and the requirements of animal ethics. • In vivo delivery: 3 mice were randomly selected per group and injected with lipid nanoparticles at a dose of 0.5 mg/kg by subcutaneous injection (Day 0). After 7 days, the same amount was used for another boost (Day 7). Tail vein blood was taken on the 21st day for the serological analysis. DLin-MC3 was used as the control. • Enzyme-linked immunosorbent assay (ELISA): a flat-bottomed 96-well plate (Nunc) was pre-coated with a concentration of OVA protein of 0.5 μg protein per well in 50 mM carbonate buffer (pH 9.6), and was allowed to stay overnight at 4° C., and then blocked with 5% glycine. Anti-serums, proteins obtained from immune animals, were diluted from 10^2 to 10^6 with PBS-0.05% Tween (PBS-T) at pH 7.4, added to the wells and incubated at room temperature, and placed at 37° C. for 1 hour. Horseradish peroxidase (HRP) coupled goat anti-mouse IgG was used for labeling in PBS-T-1% BSA at a dilution rate of 1:10,000. After the addition of the HRP substrate, the optical density was determined at a wavelength, and the absorbance at 450 nm was measured in an ELISA microplate reader (Bio-Rad).
It will be appreciated that modifications and variations are possible to those skilled in the art in light of the above teachings, and it is intended that the present invention cover all such modifications and variations as fall within the scope of the appended claims.

Question: `CCCCCCCCCCCCN1C(=O)C[C@H](C(=O)NCCN(C)C)[C@H]1CCCCCCCCCCC` (racemic) [Compound N12A12C4D1] was tested. Which “IgG antibody titers compared with the DLin-MC3 control group” value did it give?
Answer: significantly superior

Question: With `CCCCC/C=C\C/C=C\CCCCCCC[C@@H]1[C@@H](C(=O)OCCN2CCCCC2)CC(=O)N1CCCCCCCCCCCC` (racemic) [Compound N12A20C4O10] as the compound, how does the “IgG antibody titers compared with the DLin-MC3 control group” value read?
Answer: significantly superior

Question: For `CCCCCCCCCCCCCCCCN1C(=O)CC[C@H](C(=O)OCCN2CCCCC2)[C@H]1CCCCCCCCC` (racemic) [Compound N16A10C5O10], which “IgG antibody titers compared with the DLin-MC3 control group” value is on record?
Answer: significantly superior

Question: How did the “IgG antibody titers compared with the DLin-MC3 control group” value turn out when `CCCCCCCCCCCCN1C(=O)C[C@H](C(=O)OCCCN(C)C)[C@H]1CCCCCCCCCCC` (racemic) [Compound N12A12C4O2] was run?
Answer: comparable

test system: Luciferase mRNA (Fluc mRNA); test: Luciferase mRNA in vivo delivery performance of lipid nanoparticles prepared from amino lipid compounds; set-up: species or system BALB/c mice; details: batch 1; LNP with Fluc mRNA, 0.5 mg/kg intramuscular injection, mice, total fluorescence intensity imaged 6 hours after dosing
Description: Evaluation of Luciferase mRNA In Vivo Delivery Performance of Lipid Nanoparticles Prepared from Amino Lipid Compounds • Preparation process: The delivery vector in the present invention, DSPC, cholesterol, and PEG2000-DMG were mixed and dissolved in absolute ethanol in a molar ratio of 50:10:38.5:1.5. Luciferase mRNA (Fluc mRNA) was dissolved in a sodium acetate solution (50 mM, pH=4.0). Two microinjection pumps were used, and the ratio of ethanol solution to sodium acetate solution (50 mM, pH=4.0) was controlled to be 1:3. A crude solution of lipid nanoparticles was prepared in a microflow channel chip, then dialyzed for 6 hours with 1×PBS (phosphate buffer solution) at a controlled temperature of 4° C. by using a dialysis cassette (Fisher, MWCO 20,000), and filtered with a 0.22 μm microporous filter membrane before use. The mass ratio of the amino lipid compound to luciferase mRNA (Fluc mRNA) was about 10:1. • Animal preparation: 6-week-old male BALB/c mice with body weights of about 20 g were selected, and fed in an SPF-grade feeding room. Animal experiments were strictly carried out according to the guidelines of the national health institution and the requirements of animal ethics. • In vivo delivery: 3 mice were randomly selected per group and injected with lipid nanoparticles at a dose of 0.5 mg/kg by intramuscular injection. After 6 hours, 200 μL of 10 mg/mL potassium […] was injected into each mouse via the tail vein, and after 10 minutes, the mice were placed under an in vivo imaging system (IVIS-200, Xenogen), and the total fluorescence intensity of each mouse was observed and recorded by photographing.
Table 1 provides the expression intensities of Fluc mRNA delivered by the intramuscular injection administration of the representative amino lipid compounds with DLin-MC3 as the control (two batches of tests in total).

Question: `CCCCCCCCCCCCCCCCC[C@@H]1[C@@H](C(=O)NCCN2CCN(C)CC2)CC(=O)N1CCCCCC` (racemic) [Compound 10] was tested. Which Fluorescence intensity did it give?
Answer: 8.1E+05

Question: For `CCCCCCCC/C=C\CCCCCCC[C@@H]1[C@@H](C(=O)OCCN2CCCCC2)CC(=O)N1CCCCCCCCCCCC` (racemic) [Compound 16], which Fluorescence intensity is on record?
Answer: 1.4E+07

Question: `CCCCCCCC/C=C\CCCCCCC[C@@H]1[C@@H](C(=O)OCCN2CCCC2)CC(=O)N1CCCCCCCCCCCCCCCC` (racemic) [Compound 15] was tested. Which Fluorescence intensity did it give?
Answer: 2.8E+07

Question: With `CCCCCCCCCCCCCCC[C@@H]1[C@@H](C(=O)OCCN2CCCCC2)CCC(=O)N1CCCCCCCCCCCCC` (racemic) [Compound 6] as the compound, how does the Fluorescence intensity read?
Answer: 3.1E+05

Question: Which Fluorescence intensity does the source give for `CCCCCCCCCCCCCCCCN1C(=O)CC[C@H](C(=O)OCCN2CCOCC2)[C@H]1CCCCCCCCCCC` (racemic) [Compound 3] here?
Answer: 5.1E+06

Question: For `CCCCCCCCCCCCN1C(=O)C[C@H](C(=O)NCCN(C)C)[C@H]1CCCCCCCCCCC` (racemic) [Compound N12A12C4D1], which Fluorescence intensity is on record?
Answer: 2.9E+07

Question: How did the Fluorescence intensity turn out when `CCCCCCCC/C=C\CCCCCCCCN1C(=O)C[C@H](C(=O)NCCCN(C)C)[C@H]1CCCCCCCCCCC` (racemic) [Compound 11] was run?
Answer: 2.1E+06

Question: For `CCCCC/C=C\C/C=C\CCCCCCC[C@@H]1[C@@H](C(=O)OCCN2CCCCC2)CC(=O)N1CCCCCCCCCCCC` (racemic) [Compound N12A20C4O10], which Fluorescence intensity is on record?
Answer: 2.7E+06

Question: How did the Fluorescence intensity turn out when `CCCCC/C=C\C/C=C\CCCCCCCCC(CCCCCCCC/C=C\C/C=C\CCCCC)OC(=O)CCCN(C)C` [Dlin-MC3, reference compound] was run?
Answer: 7.7E+06

Question: For `CCCCCCCCCCCCCCCCC[C@@H]1[C@@H](C(=O)OCC2CCN(C)CC2)CCC(=O)N1CCCCCCCCCCCC` (racemic) [Compound 7], which Fluorescence intensity is on record?
Answer: 6.1E+05

Question: `CCCCC/C=C\C/C=C\CCCCCCC[C@@H]1[C@@H](C(=O)OCCCN(C)C)CC(=O)N1CCCCCCCCCCCCC` (racemic) [Compound 19] was tested. Which Fluorescence intensity did it give?
Answer: 2.1E+06

Question: For `CCCCC/C=C\C/C=C\CCCCCCC[C@@H]1[C@@H](C(=O)OCCN2CCCC2)CC(=O)N1CCCCCCCCCCCCCCCC` (racemic) [Compound 20], which Fluorescence intensity is on record?
Answer: 5.2E+06

Question: `CCCCCCCCCCCCCCCCN1C(=O)CC[C@H](C(=O)OCCN2CCCCC2)[C@H]1CCCCCCCCC` (racemic) [Compound N16A10C5O10] was tested. Which Fluorescence intensity did it give?
Answer: 4.5E+06

Question: How did the Fluorescence intensity turn out when `CCCCCCCCCCCCN1C(=O)C[C@H](C(=O)OCCCN(C)C)[C@H]1CCCCCCCCCCC` (racemic) [Compound N12A12C4O2] was run?
Answer: 2.8E+06

Question: `CCCCCCCCCCCCCCCCN1C(=O)C[C@H](C(=O)NCCN2CCCCC2)[C@H]1CCCCCCCC` (racemic) [Compound 9] was tested. Which Fluorescence intensity did it give?
Answer: 6.1E+06

Question: `CCCCCCCCCCCCCCCCN1C(=O)CC[C@H](C(=O)OCCCN2CCN(C)CC2)[C@H]1CCCCCCCCC` (racemic) [Compound 4] was tested. Which Fluorescence intensity did it give?
Answer: 2.8E+06

same assay, conditions: batch 2; LNP with Fluc mRNA, 0.5 mg/kg intramuscular injection, mice, total fluorescence intensity imaged 6 hours after dosing

Question: How did the Fluorescence intensity turn out when `CCCCC/C=C\C/C=C\CCCCCCCC[C@@H]1[C@@H](C(=O)OCC2CCN(C)CC2)CC(=O)N1CCCCCCCCCCCCC` (racemic) [Lipid 10] was run?
Answer: 3.6E+06

Question: For `CCCCC/C=C\C/C=C\CCCCCCCC[C@@H]1[C@@H](C(=O)OCCN2CCCCC2)CC(=O)N1CCCCCCCCCCCC` (racemic) [Lipid 9], which Fluorescence intensity is on record?
Answer: 4.2E+06

Question: `CCCCCCCC/C=C\CCCCCCCCN1C(=O)C[C@H](C(=O)OCCCN(C)C)[C@H]1CCCCCCCCCCCCCC` (racemic) [Lipid 2] was tested. Which Fluorescence intensity did it give?
Answer: 4.9E+06

Question: `CCCCCCCC/C=C\CCCCCCC[C@@H]1[C@@H](C(=O)OCCN2CCCCC2)CC(=O)N1CCCCCCCCCCCC` (racemic) [Lipid 8] was tested. Which Fluorescence intensity did it give?
Answer: 2.3E+07

Question: Which Fluorescence intensity does the source give for `CCCCCCCC/C=C\CCCCCCC[C@@H]1[C@@H](C(=O)OCCN2CCCC2)CC(=O)N1CCCCCCCCCCCCCCCC` (racemic) [Lipid 7] here?
Answer: 4.8E+07

Question: Which Fluorescence intensity does the source give for `CCCCCCCC/C=C\CCCCCCCCN1C(=O)C[C@H](C(=O)OCCN2CCCCC2)[C@H]1CCCCCCCCC` (racemic) [Lipid 1] here?
Answer: 8.8E+06

Question: `CCCCC/C=C\C/C=C\CCCCCCCCC(CCCCCCCC/C=C\C/C=C\CCCCC)OC(=O)CCCN(C)C` [Dlin-MC3, reference compound] was tested. Which Fluorescence intensity did it give?
Answer: 6.9E+06

Question: Which Fluorescence intensity does the source give for `CCCCC/C=C\C/C=C\CCCCCCCCN1C(=O)C[C@H](C(=O)OCCCN2CCN(C)CC2)[C@H]1CCCCCCCCCCCC` (racemic) [Lipid 6] here?
Answer: 3.7E+06

Question: For `CCCCCCCC/C=C\CCCCCCCCN1C(=O)C[C@H](C(=O)OCCN2CCCC2)[C@H]1CCCCCCCCCCCCCCCCC` (racemic) [Lipid 3], which Fluorescence intensity is on record?
Answer: 2.9E+07

Question: `CCCCC/C=C\C/C=C\CCCCCCCCN1C(=O)C[C@H](C(=O)OCCN2CCCC2)[C@H]1CCCCCCCCCCCCCC` (racemic) [Lipid 5] was tested. Which Fluorescence intensity did it give?
Answer: 7.6E+06
